Assays:
HDAC7 = target: T1, HDAC7 (Homo sapiens, UniProt Q8WUI4); test: Measurement of biochemical activities of HDAC (fluorescently-labeled acetylated lysine substrate)
T1 sequence (Q8WUI4 1-952): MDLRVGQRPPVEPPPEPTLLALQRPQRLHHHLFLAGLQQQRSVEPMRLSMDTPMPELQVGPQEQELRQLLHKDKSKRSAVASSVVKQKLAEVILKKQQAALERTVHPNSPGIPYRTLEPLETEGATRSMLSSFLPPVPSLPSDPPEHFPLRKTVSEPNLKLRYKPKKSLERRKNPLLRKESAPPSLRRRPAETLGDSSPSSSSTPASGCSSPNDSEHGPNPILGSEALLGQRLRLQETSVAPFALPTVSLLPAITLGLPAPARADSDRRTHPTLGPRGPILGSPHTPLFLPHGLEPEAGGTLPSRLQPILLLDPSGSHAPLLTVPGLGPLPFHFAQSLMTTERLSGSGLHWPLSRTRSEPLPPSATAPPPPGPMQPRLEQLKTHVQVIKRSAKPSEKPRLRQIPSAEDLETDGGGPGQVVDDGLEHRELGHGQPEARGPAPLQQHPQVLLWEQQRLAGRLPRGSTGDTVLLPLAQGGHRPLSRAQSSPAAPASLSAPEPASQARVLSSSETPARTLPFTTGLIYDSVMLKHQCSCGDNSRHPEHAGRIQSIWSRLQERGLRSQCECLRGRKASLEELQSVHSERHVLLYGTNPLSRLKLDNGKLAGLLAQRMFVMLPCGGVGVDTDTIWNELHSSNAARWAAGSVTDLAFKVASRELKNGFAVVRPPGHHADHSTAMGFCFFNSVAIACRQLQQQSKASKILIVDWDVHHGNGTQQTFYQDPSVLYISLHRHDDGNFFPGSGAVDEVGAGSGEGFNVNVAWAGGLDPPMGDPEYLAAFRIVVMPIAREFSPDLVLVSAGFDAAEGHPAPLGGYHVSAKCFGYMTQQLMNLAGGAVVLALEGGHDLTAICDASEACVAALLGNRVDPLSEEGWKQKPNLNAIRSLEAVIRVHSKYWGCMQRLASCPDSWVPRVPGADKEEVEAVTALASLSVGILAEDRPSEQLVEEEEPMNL
Procedure, shortened: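 For both HDAC isoforms, fluorescent acetyl-lysine substrate ([…] in reaction) incubated with enzyme and compounds for 30 min at 37; developer then added for 15 min at room temperature. Fluorescence read at excitation 360 nm, emission 460 nm.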

[1] = system: A549 (human lung cancer cells); test: MTT cancer cell growth inhibition; assay type: cell-based; conditions: 72 h
Procedure, shortened: (§1)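 Survival rate is derived from MTT reduction read at 570 nm after DMSO solubilisation. Cells grow overnight at 1500 per well, receive compound (final 10^−5–10^−10 M, 0.1% DMSO control) and incubate 72 h at 37 °C under 5% CO2 before a 4 h MTT step.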

[2] = system: BGC-823 (human gastric cancer cells); test: MTT cancer cell growth inhibition; assay type: cell-based; conditions: 72 h, read-out: GI50 BGC823
Procedure, shortened: as §1

[3] = system: HT1080 (human fibrosarcoma cells); test: MTT cancer cell growth inhibition; assay type: cell-based; conditions: HT-1080, 72 h
Procedure, shortened: as §1

[4] = system: Hela (human cervical cancer cells); test: MTT cancer cell growth inhibition; assay type: cell-based; conditions: 72 h
Procedure, shortened: as §1

[5] = system: MCF-7 (human breast cancer cells); test: MTT cancer cell growth inhibition; assay type: cell-based; conditions: MCF7, 72 h
Procedure, shortened: as §1

PANC-1 = test: MTT cancer cell growth inhibition; assay type: cell-based; conditions: Homo sapiens, 72 h
Procedure, shortened: as §1

[6] = system: U937 (human leukemia cells); test: MTT cancer cell growth inhibition; assay type: cell-based; conditions: U-937, 72 h
Procedure, shortened: as §1

Row | IC50 HDAC7 (HDAC7) | GI50 [1] [nM] | GI50 [2] [nM] | GI50 [3] [nM] | GI50 [4] [nM] | GI50 [5] [nM] | GI50 (PANC-1) [nM] | GI50 [6] [nM] | SMILES
1 | no activity | 500 | 400 | 1300 | 1000 | 600 | 3000 | 200 | C/C=C1\NC(=O)c2csc(n2)CNC(=O)C[C@@H](/C=C/CCSC(=O)CCCCCCC)OC(=O)[C@H](C(C)(C)C)NC1=O [Compound 1-6]
2 | no activity | 2900 | 2500 | 800 | 1300 | 200 | 1600 | 30 | C/C=C1\NC(=O)c2csc(n2)CNC(=O)C[C@@H](/C=C/CCSC(=O)CCCCCCC)OC(=O)[C@H](C)NC1=O [Compound 1-4]
3 | no activity | 400 | 300 | 300 | 5000 | 700 | 1500 | 20 | C/C=C1\NC(=O)c2csc(n2)CNC(=O)C[C@@H](/C=C/CCSC(=O)CCCCCCC)OC(=O)[C@H](Cc2ccccc2)NC1=O [Compound 1-7]
4 | no activity | 100 | 300 | 70 | 100 | 100 | 100 | 20 | C/C=C1\NC(=O)c2csc(n2)CNC(=O)C[C@@H](/C=C/CCSC(=O)CCCCCCC)OC(=O)[C@H](Cc2ccc(O)cc2)NC1=O [Compound 1-8]

Row | SMILES | IC50 HDAC7 (HDAC7) | GI50 [1] [nM] | GI50 [2] [nM] | GI50 [3] [nM] | GI50 [4] [nM] | GI50 [5] [nM] | GI50 (PANC-1) [nM] | GI50 [6] [nM]
5 | C/C=C1\NC(=O)c2csc(n2)CNC(=O)C[C@@H](/C=C/CCSC(=O)CCCCCCC)OC(=O)[C@H](C(C)C)NC1=O [Compound 1-3] | no activity | 10000 | 60 | 4000 | 1000 | 1200 | 6000 | 500
6 | O=C(CCCCCCC(=O)Nc1ccccc1)NO [SAHA, suberoylanilide hydroxamic acid, reference compound] | no activity | 7700 | 4500 | 3800 | 37800 | 1800 | 7460 | 2310

Source: patent US8933195B2, “Histone deacetylase inhibitors and synthetic method thereof and use thereof in manufacture of medicaments” (Nanjing Yoko Biomedical R & D Ltd., priority 2011, dated 2015)
